Measurements taken from the supplement of paper PMC5908809.

What was measured:
[1] = system: normal NK cells expanded with K562-aAPC; assay: percent inhibition of viability; higher = more inhibition; details: 72 h, IL-2 2.5 ng/mL
Procedure: (§1)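 Drug sensitivity and resistance testing on K562-aAPC-expanded normal NK cells: 5 concentrations (10-fold steps over a 10,000-fold range), 72 h at 37 °C, viability by CellTiter-Glo normalised to DMSO and benzethonium chloride controls; DSS from the fitted curve.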

[2] = system: DERL-7 (IL-2 2.5 ng/mL); assay: as above; details: 72 h
[3] = system: IMC-1 (IL-2 20 ng/mL); assay: as above; details: 72 h
[4] = system: KAI3 (IL-2 2.5 ng/mL); assay: as above; details: 72 h
[5] = system: KHYG-1 (IL-2 2.5 ng/mL); assay: as above; details: 72 h
[6] = system: NK-92 (IL-2 2.5 ng/mL); assay: as above; details: 72 h
[7] = system: NK-YS (IL-2 2.5 ng/mL); assay: as above; details: 72 h
[8] = system: NKL (IL-2 2.5 ng/mL); assay: as above; details: 72 h
[9] = system: SNK-6 (IL-2 2.5 ng/mL); assay: as above; details: 72 h
[10] = system: YT (IL-2 2.5 ng/mL); assay: as above; details: 72 h
[11] = system: normal primary NK cells, pool 1 (3 donors) (IL-2 2.5 ng/mL); assay: as above; details: 72 h
[12] = system: normal primary NK cells, pool 1 (3 donors), resting (IL-2 0 ng/mL); assay: as above; details: 72 h
[13] = system: normal primary NK cells, pool 2 (3 donors) (IL-2 2.5 ng/mL); assay: as above; details: 72 h
[14] = system: normal primary NK cells, pool 3 (3 donors) (IL-2 2.5 ng/mL); assay: as above; details: 72 h
[15] = system: normal NK cells expanded with K562-aAPC; assay: drug sensitivity score (DSS) (DSS units); higher = more sensitive; extreme values may be limits of the assay; details: 72 h; IL-2 2.5 ng/mL
Procedure: as §1

[16] = system: DERL-7 (IL-2 2.5 ng/mL); assay: as above; details: 72 h
[17] = system: IMC-1 (IL-2 20 ng/mL); assay: as above; details: 72 h
[18] = system: KAI3 (IL-2 2.5 ng/mL); assay: as above; details: 72 h
[19] = system: KHYG-1 (IL-2 2.5 ng/mL); assay: as above; details: 72 h
[20] = system: NK-92 (IL-2 2.5 ng/mL); assay: as above; details: 72 h
[21] = system: NK-YS (IL-2 2.5 ng/mL); assay: as above; details: 72 h
[22] = system: NKL (IL-2 2.5 ng/mL); assay: as above; details: 72 h
[23] = system: SNK-6 (IL-2 2.5 ng/mL); assay: as above; details: 72 h
[24] = system: YT (IL-2 2.5 ng/mL); assay: as above; details: 72 h
[25] = system: normal primary NK cells, pool 1 (3 donors) (IL-2 2.5 ng/mL); assay: as above; details: 72 h
[26] = system: normal primary NK cells, pool 1 (3 donors), resting (IL-2 0 ng/mL); assay: as above; details: 72 h
[27] = system: normal primary NK cells, pool 2 (3 donors) (IL-2 2.5 ng/mL); assay: as above; details: 72 h
[28] = system: normal primary NK cells, pool 3 (3 donors) (IL-2 2.5 ng/mL); assay: as above; details: 72 h

O=C(O)c1ccc(O)c2ncccc12 [IOX-1] (max concentration tested 100000 nM)
percent inhibition of viability [%]
Details | 10 nM | 100 nM | 1000 nM | 10000 nM | 100000 nM
[1] | 2.28 | -1.61 | -3.75 | -2.77 | 37.3
[2] | 3.2 | 6.07 | 1.59 | 7.49 | 60.9
[3] | -3.09 | -5.78 | -3.15 | -12.9 | 98.3
[4] | -3.64 | -1.76 | 6.25 | 18.8 | 90.3
[5] | -4.24 | 1.11 | -3.63 | 4.25 | 97.2
[6] | -6.93 | 3.17 | -9.38 | 5.58 | 84.7
[7] | -2.09 | 1.71 | -3.7 | -0.87 | 90
[8] | 1.44 | -6.7 | -0.16 | 3.16 | 91.7
[9] | 5.81 | 6.03 | 15.1 | 13.8 | 96.1
[10] | -3.65 | -2.89 | -3.48 | -1.62 | 93.9
[11] | -3.62 | -13.1 | 0.64 | 8.14 | 36.8
[12] | -3.86 | -11 | -13.3 | 21.7 | 44.1
[13] | -7.65 | 2.85 | -9.5 | -2.84 | 18.6
[14] | -7.55 | -4.61 | -5.18 | 1.2 | 19.5

Details | drug sensitivity score
[15] | 1.59
[16] | 4.57
[17] | 4.66
[18] | 8.02
[19] | 5.99
[20] | 5.53
[21] | 4.95
[22] | 5.52
[23] | 7.64
[24] | 5.1
[25] | 3.07
[26] | 5.03
[27] | 0.36
[28] | 0.69

CCc1nc(-c2cccc(C)c2)c(-c2ccnc(NC(=O)c3ccccc3)c2)s1 [TAK-715] (max concentration tested 10000 nM)
percent inhibition of viability [%]
Details | 1 nM | 10 nM | 100 nM | 1000 nM | 10000 nM
[1] | -6.95 | -2.48 | -3.15 | 7.93 | 1.86
[2] | -3.04 | 0.75 | -2.18 | -4.76 | 8.69
[3] | -6.3 | 1.07 | -0.32 | 8.04 | 35.2
[4] | -4.52 | 11.6 | 8.66 | 14 | 47
[5] | -3.44 | 6.66 | 1.56 | 3.92 | 42.6
[6] | -3.47 | -2.91 | 1.84 | 9.91 | 81.8
[7] | -4.18 | 3.4 | 5.2 | 13.3 | 54.6
[8] | -0.29 | 6.95 | 13.8 | 30.5 | 43.6
[9] | -15.1 | -7.56 | -2.44 | -0.98 | 67
[10] | -1.34 | 5.71 | 0.2 | 5.66 | 48.7
[11] | -3.9 | -10.5 | -3.55 | -13.9 | 13.3
[12] | 2.15 | 0.59 | -2.35 | -18.5 | 45.6
[13] | -3.82 | 0.59 | 1.26 | -4.23 | 23.5
[14] | -8.64 | -2.23 | 3.1 | -8.31 | 13.7

Details | drug sensitivity score
[15] | 0
[16] | 0
[17] | 2.93
[18] | 3.97
[19] | 2.79
[20] | 6.19
[21] | 5.02
[22] | 6.94
[23] | 3.59
[24] | 3.5
[25] | 0.02
[26] | 1.63
[27] | 0.63
[28] | 0.05

COc1ncc(-c2ccc3nccc(-c4ccnnc4)c3c2)cc1NS(=O)(=O)c1ccc(F)cc1F [Omipalisib] (max concentration tested 1000 nM)
percent inhibition of viability [%]
Details | 0.1 nM | 1 nM | 10 nM | 100 nM | 1000 nM
[1] | 3.51 | 3.67 | 20.4 | 44.6 | 55.5
[2] | 1.39 | 16.9 | 45.5 | 77.3 | 95.7
[3] | -0.58 | -1.71 | -11.8 | -32.5 | 29.1
[4] | 2.3 | 36.1 | 15.3 | 35.5 | 62.9
[5] | 1.89 | 1.24 | 8.6 | 40.2 | 91.6
[6] | 3.62 | 20.4 | 32.1 | 48.6 | 69.9
[7] | -0.6 | 1.69 | 13.2 | 53.7 | 73.3
[8] | -9.37 | 0.19 | 6.59 | 54.9 | 80.4
[9] | 8.44 | 2.37 | -0.31 | 30.5 | 61.5
[10] | -0.94 | 1.51 | 27.5 | 54.4 | 79.8
[11] | -10 | -4.5 | 18.5 | 20.1 | 40
[12] | 2.21 | 9.83 | 13.8 | 26.6 | 49.1
[13] | -6.47 | 2.05 | 24.7 | 24.7 | 47.5
[14] | -11.3 | -2.43 | 7.07 | 5.39 | 36.4

Details | drug sensitivity score
[15] | 10.6
[16] | 21
[17] | 0.6
[18] | 12.9
[19] | 9.7
[20] | 14.8
[21] | 11.7
[22] | 11.4
[23] | 7.24
[24] | 13.7
[25] | 5.18
[26] | 6.75
[27] | 7.36
[28] | 2.64

O=C(c1ccc(/C=C/c2n[nH]c3ccccc23)cc1)N1CCNCC1 [KW-2449] (max concentration tested 2500 nM)
percent inhibition of viability [%]
Details | 0.25 nM | 2.5 nM | 25 nM | 250 nM | 2500 nM
[1] | 1.55 | -7.82 | -4.83 | -5.26 | 33
[2] | -3.07 | -3.42 | -0.35 | -5.82 | 52
[3] | -4.33 | -2.55 | -3.12 | -4.5 | -8.66
[4] | -7.2 | -3.33 | -4.86 | -5.15 | 12.8
[5] | -4.37 | -3.8 | -7.48 | -0.63 | 63.4
[6] | -17.7 | -18 | -20.5 | -12.6 | 18.9
[7] | -5.66 | -7.24 | -6.03 | 0.88 | 42.9
[8] | -16.7 | -15.7 | -8.73 | -17 | 8.68
[9] | 11.8 | 9.47 | 14.2 | 3.56 | 67.5
[10] | 0.95 | 1.96 | -2.99 | -1.32 | 9
[11] | 0.56 | -11.2 | -7.09 | -3.29 | 23.3
[12] | -12.6 | 0.69 | -21.6 | -1.76 | -0.59
[13] | 0.9 | -1.16 | -5.56 | -9.38 | 13.4
[14] | -10.8 | -6.97 | -9.8 | -18.2 | -0.01

Details | drug sensitivity score
[15] | 1.2
[16] | 2.35
[17] | 0.89
[18] | 0.03
[19] | 3.4
[20] | 0.25
[21] | 2.28
[22] | 0
[23] | 4.22
[24] | 0
[25] | 0.65
[26] | 0
[27] | 0.03
[28] | 0.89

C[C@H]1C[C@@H]2[C@H]([C@@H](O)C[C@@]3(C)[C@H]2CC[C@]3(O)C(=O)CO)[C@@]2(C)C=CC(=O)C=C12 [Methylprednisolone] (max concentration tested 10000 nM)
percent inhibition of viability [%]
Details | 1 nM | 10 nM | 100 nM | 1000 nM | 10000 nM
[1] | -4.84 | 16.6 | 51.6 | 67.2 | 74.4
[2] | -1.31 | 19 | 94 | 100 | 101
[3] | -4.86 | -2.72 | -15.2 | -4.89 | -2.93
[4] | -8.86 | -6.63 | -0.28 | 7.95 | 30.7
[5] | -4.65 | 5.05 | 18.2 | 46 | 55.1
[6] | -14.6 | -20.1 | -27.4 | -10.6 | 3.24
[7] | -6.22 | -4.6 | 0.39 | 6.37 | 16.5
[8] | 4.02 | 31.1 | 57 | 63.6 | 67.6
[9] | 7.96 | -13.3 | -4.6 | -6.43 | 15.4
[10] | -5.71 | 10.2 | 19.4 | 43.3 | 53.1
[11] | 6.03 | 24 | 56.2 | 75.3 | 81.7
[12] | -1.18 | 47.6 | 75.4 | 84.2 | 87.2
[13] | -6.66 | 20.1 | 52.2 | 69.9 | 76.8
[14] | -7.17 | 8.16 | 33.7 | 46.2 | 58.4

Details | drug sensitivity score
[15] | 20.6
[16] | 32.1
[17] | 0
[18] | 2.54
[19] | 10.5
[20] | 0
[21] | 0.89
[22] | 23
[23] | 0.13
[24] | 10.3
[25] | 23.3
[26] | 31.7
[27] | 21.3
[28] | 13.5
